Columns and labels:
Format in all cases: in vivo
[1] = system: Boophilus microplus; test: Boophilus microplus injection test; settings: Rhipicephalus microplus, 168 h, 20 μg/animal, egg deposition after 7 days, read-out: efficacy (infertile eggs)
Method: (§1) • Solvent: dimethyl sulfoxide
To produce a suitable preparation of active compound, 10 mg of active compound are dissolved in 0.5 ml solvent, and the concentrate is diluted with solvent to the desired concentration.
Five adult engorged female ticks (Boophilus microplus) are injected with 1 μl compound solution into the abdomen. The ticks are transferred into replica plates and incubated in a climate chamber.
After 7 days egg deposition of fertile eggs is monitored. Eggs where fertility is not visible are stored in a climate chamber till hatching after about 42 days. An efficacy of 100% means all eggs are infertile; 0% means all eggs are fertile.

[2] = system: Ctenocephalides felis; test: Ctenocephalides felis oral test; settings: 48 h, 100 ppm in cattle blood, after 2 days
Method: as §1
To produce a suitable preparation of active compound, 10 mg of active compound are dissolved in 0.5 ml solvent, and the concentrate is diluted with cattle blood to the desired concentration.
Approximately 20 adult unfed cat fleas (Ctenocephalides felis) are placed in flea chambers. The blood chamber, sealed with parafilm on the bottom, are filled with cattle blood supplied with compound solution and placed on the gauze covered top of the flea chamber, so that the fleas are able to suck the blood. The blood chamber is heated to 37° C. whereas the flea chamber is kept at room temperature.
After 2 days mortality in % is determined. 100% means all the fleas have been killed; 0% means none of the fleas have been killed.

[3] = system: Myzus persicae; test: Myzus persicae oral test; settings: 120 h
Method: • Solvent: 100 parts by weight acetone
To produce a suitable preparation of active compound, 1 part by weight of active compound is mixed with the stated amount of solvent, and the concentrate is diluted with water to the desired concentration. 50 μl compound solution is filled in microtiter plates and 150 μl IPL41 insect medium (33%+15% sugar) is added to obtain a total volume of 200 μl per well. Afterwards the plates are sealed with parafilm through which a mixed population of the green peach aphid (Myzus persicae) can suck on the compound preparation.
(§2) After 5 days mortality in % is determined. 100% means all aphids have been killed and 0% means none of the aphids have been killed.

[4] = system: Nezara viridula; test: Nezara viridula spray test; settings: 96 h
Method: (§3) • Solvent: 78.0 parts by weight of acetone • 1.5 parts by weight of dimethylformamide • Emulsifier: alkylarylpolyglycol ether
(§4) To produce a suitable preparation of active compound, 1 part by weight of active compound is mixed with the stated amount of solvent, and the concentrate is diluted with water, containing an emulsifier concentration of 1000 ppm, to the desired concentration. Further test concentrations are prepared by dilution with emulsifier containing water.
Barley plants (Hordeum vulgare) infested with larvae of the southern green stink bug (Nezara viridula) are sprayed with a test solution containing the desired concentration of the active ingredient.
After 4 days mortality in % is determined. 100% means all the stink bugs have been killed; 0% means none of the stink bugs have been killed.

[5] = system: Phaedon cochleariae; test: Phaedon cochleariae spray test; settings: 168 h, after 7 days
Method: as §3
as §4, with “solvents” for “solvent,”, “and” for “and the concentrate”
Chinese cabbage (Brassica pekinensis) leaf disks are sprayed with a preparation of the active ingredient of the desired concentration. Once dry, the leaf disks are infested with mustard beetle larvae (Phaedon cochleariae).
After 7 days mortality in % is determined. 100% means all beetle larvae have been killed and 0% means none of the beetle larvae have been killed.

[6] = system: Spodoptera frugiperda; test: Spodoptera frugiperda spray test; settings: 168 h
Method: (§5) • Solvent: 78.0 parts by weight acetone • 1.5 parts by weight dimethylformamide • Emulsifier: alkylarylpolyglycol ether
as §4, with “solvents” for “solvent,”, “and” for “and the concentrate”
Maize (Zea mays) leaf sections are sprayed with a preparation of the active ingredient of the desired concentration. Once dry, the leaf sections are infested with fall armyworm larvae (Spodoptera frugiperda).
After 7 days mortality in % is determined. 100% means all caterpillars have been killed and 0% means none of the caterpillars have been killed.

[7] = system: Tetranychus urticae (OP-Resistant); test: Tetranychus urticae (OP-resistant) spray test; settings: 144 h, after 6 days
Method: as §5
as §4, with “solvents” for “solvent,”, “and” for “and the concentrate”
French bean (Phaseolus vulgaris) leaf disks infected with all instars of the two spotted spidermite (Tetranychus urticae), are sprayed with a preparation of the active ingredient of the desired concentration.
After 6 days mortality in % is determined. 100% means all spider mites have been killed and 0% means none of the spider mites have been killed.

[8] = system: Ctenocephalides felis; test: Ctenocephalides felis in-vitro contact test, adult cat flea; settings: 5 μg/cm^2, after 48 hours, read-out: efficacy (fleas dead or moribund)
Method: (§6) 9 mg compound is solved in 1 ml acetone and diluted with acetone to the desired concentration. 250 μl of the test solution is filled in 25 ml glass test tubes and homogeneously distributed on the inner walls by rotation and tilting on a shaking device (2 h at 30 rpm). With a compound concentration of 900 ppm, an inner surface of 44.7 cm^2 and a homogeneous distribution, a dose of 5 μg/cm^2 is achieved.
(§7) After the solvent has evaporated, each test tube is filled with 5-10 adult cat fleas (Ctenocephalides felis), closed with a perforated lid and incubated in a lying position at room temperature and relative humidity. After 48 hours efficacy is determined. The fleas are patted on the ground of the tubes and are incubated on a heating plate at 45-50° C. for at most 5 minutes. Immotile or uncoordinated moving fleas, which are not able to escape the heat by climbing upwards, are marked as dead or moribund.
An efficacy of 100% means all fleas are dead or moribund; 0% means no fleas are dead or moribund.

[9] = system: Rhipicephalus sanguineus; test: Rhipicephalus sanguineus in-vitro contact test, adult brown dog ticks
Method: as §6
as §7, with “brown dog ticks (Rhipicephalus sanguineus),” for “cat fleas (Ctenocephalides felis),”, “ticks” for “fleas”, “ticks,” for “fleas,”
An efficacy of 100% means all ticks are dead or moribund; 0% means no ticks are dead or moribund.

[10] = system: Nilaparvata lugens; test: Nilaparvata lugens spray test; settings: 96 h
Method: as §3
as §4, with “solvents” for “solvent,”, “and” for “and the concentrate”
Rice plants (Oryza sativa) are sprayed with a preparation of the active ingredient of the desired concentration and the plants are infested with the brown planthopper (Nilaparvata lugens).
After 4 days mortality in % is determined. 100% means all planthoppers have been killed and 0% means none of the planthoppers have been killed.

[11] = system: Aedes aegypti strain MONHEIM; test: Aedes aegypti test (surface treatment & contact assay); settings: 24 hours after contact, read-out: efficacy (mortality); for mortality at 4 mg/m2: surface concentration 4 mg/m^2, 30 min exposure; for mortality at 20 mg/m2: surface concentration 20 mg/m^2, 30 min exposure
Method: (§8) • Solvent: Aceton+2000 ppm rapeseed oil methyl ester (RME)
(§9) In order to produce a sufficient, active ingredient containing solution it is necessary to solve the test compound in the solvent-mix (acetone at 2 mg/ml/RME 2000 ppm). This solution is pipetted onto a glazed tile and after evaporation of the acetone, adult mosquitoes of the species Aedes aegypti strain MONHEIM are placed onto the dried surface. The exposure time is 30 minutes.
(§10) Mortality in percent (%) is determined 24 hours after contact of the insects to the treated surface. 100% mortality means that all tested insects are dead, whereas 0% means that no insect died.

[12] = system: Culex quinquefasciatus strain P00; test: Culex quinquefasciatus test (surface treatment & contact assay); settings: 24 hours after contact, read-out: efficacy (mortality); for mortality at 4 mg/m2: surface concentration 4 mg/m^2, 30 min exposure; for mortality at 20 mg/m2: surface concentration 20 mg/m^2, 30 min exposure
Method: as §8
as §9, with “Culex quinquefasciatus” for “Aedes aegypti”, “P00” for “MONHEIM”
as §10

[13] = system: Anopheles funestus strain FUMOZ-R; test: Anopheles funestus test (surface treatment & contact assay); settings: 24 hours after contact, read-out: efficacy (mortality); for mortality at 4 mg/m2: surface concentration 4 mg/m^2, 30 min exposure; for mortality at 20 mg/m2: surface concentration 20 mg/m^2, 30 min exposure
Method: as §8
as §9, with “Anopheles funestus” for “Aedes aegypti”, “FUMOZ-R (Hunt et al., Med. Vet. Entomol. 2005 September; 19(3): 271-275)” for “MONHEIM”
as §10

[14] = system: Musca domestica strain WHO-N; test: Musca domestica test (surface treatment & contact assay); settings: 24 hours after contact, read-out: efficacy (mortality); for mortality at 4 mg/m2: surface concentration 4 mg/m^2, 30 min exposure; for mortality at 20 mg/m2: surface concentration 20 mg/m^2, 30 min exposure
Method: as §8
as §9, with “flies” for “mosquitoes”, “Musca domestica” for “Aedes aegypti”, “WHO-N” for “MONHEIM”
as §10

[15] = system: Myzus persicae; test: Myzus persicae spray test; settings: 120 h
Method: as §5
as §4, with “solvents” for “solvent,”, “and” for “and the concentrate”
Chinese cabbage (Brassica pekinensis) leaf disks infected with all instars of the green peach aphid (Myzus persicae), are sprayed with a preparation of the active ingredient of the desired concentration.
as §2

Row | SMILES | pest or weed control at 0.02 mg [1] [%] | mortality at 100 ppm [2] [%] | mortality at 4 ppm [3] [%] | mortality at 20 ppm [3] [%] | mortality at 500 g/ha [4] [%] | mortality at 500 g/ha [5] [%] | mortality at 500 g/ha [6] [%] | mortality at 500 g/ha [7] [%] | pest or weed control at 5 µg/cm2 [8] [%] | efficacy (ticks dead or moribund) ([9]; 1 μg/cm^2, after 48 hours) [%] | efficacy (ticks dead or moribund) ([9]; 5 μg/cm^2, after 48 hours) [%] | mortality at 500 g/ha [10] [%] | mortality at 4 mg/m2 [11] [%] | mortality at 20 mg/m2 [11] [%] | mortality at 20 mg/m2 [12] [%] | mortality at 20 mg/m2 [13] [%] | mortality at 4 mg/m2 [14] [%] | mortality at 20 mg/m2 [14] [%] | mortality at 500 g/ha [15] [%] | other results
1 | CON(C(=O)c1cc(Cl)cc(C(F)(F)F)c1)C(C)c1ncnn1-c1ncccn1 (stereo not drawn) [Example I-026] | 100 | 100 | 100 | 100 | 100 | 100 | 100 | 90 | – | – | – | – | – | – | – | – | – | – | – | –
2 | CSCCN(C(=O)c1cc(Cl)cc(C(F)(F)F)c1)C(C)c1ncnn1-c1ncccn1 (stereo not drawn) [Example I-017] | 100 | 100 | 100 | 100 | 100 | 100 | 100 | – | 100 | 80 | 100 | 100 | 80 to 100 | 90 to 100 | 90 to 100 | 85 to 100 | 90 to 100 | 90 to 100 | – | mortality at 4 mg/m2 [12]: 85 to 100%; mortality at 4 mg/m2 [13]: 85 to 100%
3 | CCON(C(=O)c1cc(Cl)cc(C(F)(F)F)c1)C(C)c1ncnn1-c1ncccn1 (stereo not drawn) [Example I-027] | 100 | 100 | 100 | 100 | 100 | 100 | – | 80 | 100 | 100 | – | – | – | – | – | 85 to 100 | – | – | – | mortality at 4 mg/m2 [13]: 85 to 100%
4 | CSCCN(C(=O)c1cc(C(F)(F)F)cc(C(F)(F)F)c1)C(C)c1ncnn1-c1ccc(C#N)cn1 (stereo not drawn) [Example I-034] | – | – | 100 | – | 100 | – | 100 | – | 100 | – | – | – | – | 90 to 100 | 90 to 100 | 85 to 100 | 90 to 100 | 90 to 100 | 100 | mortality at 4 mg/m2 [12]: 85 to 100%
5 | CSCCN(C(=O)c1cc(Cl)cc(C(F)(F)F)c1)C(C)c1ncnn1-c1ccc(C#N)cn1 (stereo not drawn) [Example I-033] | – | – | 100 | – | 100 | – | 100 | – | 100 | – | – | – | 80 to 100 | 90 to 100 | 90 to 100 | 85 to 100 | 90 to 100 | 90 to 100 | 90 | –
6 | CON(C(=O)c1cccc(C(F)(F)F)c1)C(C)c1ncnn1-c1ncccn1 (stereo not drawn) [Example I-028] | 100 | – | – | – | 100 | – | – | – | – | 80 | 100 | 100 | – | – | – | – | – | – | – | –
7 | CC(c1ncnn1-c1ncccn1)N(Cc1ccc(Cl)nc1)C(=O)c1cc(Cl)cc(C(F)(F)F)c1 (stereo not drawn) [Example I-030] | 100 | 100 | 100 | – | 100 | – | 100 | – | 90 | – | – | 100 | 80 to 100 | 90 to 100 | 90 to 100 | 85 to 100 | 90 to 100 | 90 to 100 | 100 | –
8 | CCOCN(C(=O)c1cc(Cl)cc(C(F)(F)F)c1)C(C)c1ncnn1-c1ncccn1 (stereo not drawn) [Example I-013, 3-Chloro-N-(ethoxymethyl)-N-{1-[1-(pyrimidin-2-yl)-1H-1,2,4-triazol-5-yl]ethyl}-5-(trifluoromethyl)benzamide] | 100 | 100 | 100 | 100 | – | 100 | 100 | 80 | 100 | 100 | 100 | 100 | – | – | – | – | – | – | – | –

Source: patent US12116357B2, “Heteroaryl-triazole and heteroaryl-tetrazole compounds as pesticides” (Bayer Aktiengesellschaft, priority 2018, dated 2024)
